Test system: HeLa
Test: Cytotoxicity in HeLa S3 cells (human uterocervical carcinoma) was determined
Assay type: functional, cell-based
[1] = Homo sapiens, HeLa, read-out: IC50

SMILES	IC50 [1] [µM]	IC50 (hela) [µM]
CC(=O)OC1(CC#Cc2ccccc2)C=CC(=O)C1=Cc1ccccc1 (stereo unspecified)	0.024	
O=C1CC(SCCO)/C(=C/C#Cc2ccccc2)C1C(SCCO)c1ccccc1 (stereo unspecified)		> 1000
O=C1CC(SCCO)C(O)(CC#Cc2ccccc2)/C1=C/c1ccccc1 (stereo unspecified)	0.021	
O=C1C=CC(O)(CC#Cc2ccccc2)/C1=C/c1ccccc1 (stereo unspecified)	0.015	
O=C1CC(SCCO)/C(=C\C#Cc2ccccc2)C1C(SCCO)c1ccccc1 (stereo unspecified)		> 1000
O=C1C=CC(CC#Cc2ccccc2)(OC2CCCCO2)/C1=C/c1ccccc1 (stereo unspecified)	1.1	

From ChEMBL document CHEMBL1146674, “Effective irreversible alkylating reagents based on the structure of clavulones” (Bioorg Med Chem Lett, 2004)
